The values below come from ChEMBL document CHEMBL4385604, “Identification of Pyrrolo[2,3- d]pyrimidine-Based Derivatives as Potent and Orally Effective Fms-like Tyrosine Receptor Kinase 3 (FLT3) Inhibitors for Treating Acute Myelogenous Leukemia” (J Med Chem, 2019).

The nature of data set [1]: Plasma clearance in Sprague-Dawley rat at 5 mg/kg, po by LC-MS/MS analysis. It counts as ADME, organism-based.
Data set [2] is described as follows: Oral bioavailability in Sprague-Dawley rat at 5 mg/kg by LC-MS/MS analysis. It counts as ADME, organism-based. The conditions noted are these: in vivo.
The target of data set [3] is T1, Receptor-type tyrosine-protein kinase FLT3 (Homo sapiens, UniProt P36888).
T1 sequence (P36888 whole entry): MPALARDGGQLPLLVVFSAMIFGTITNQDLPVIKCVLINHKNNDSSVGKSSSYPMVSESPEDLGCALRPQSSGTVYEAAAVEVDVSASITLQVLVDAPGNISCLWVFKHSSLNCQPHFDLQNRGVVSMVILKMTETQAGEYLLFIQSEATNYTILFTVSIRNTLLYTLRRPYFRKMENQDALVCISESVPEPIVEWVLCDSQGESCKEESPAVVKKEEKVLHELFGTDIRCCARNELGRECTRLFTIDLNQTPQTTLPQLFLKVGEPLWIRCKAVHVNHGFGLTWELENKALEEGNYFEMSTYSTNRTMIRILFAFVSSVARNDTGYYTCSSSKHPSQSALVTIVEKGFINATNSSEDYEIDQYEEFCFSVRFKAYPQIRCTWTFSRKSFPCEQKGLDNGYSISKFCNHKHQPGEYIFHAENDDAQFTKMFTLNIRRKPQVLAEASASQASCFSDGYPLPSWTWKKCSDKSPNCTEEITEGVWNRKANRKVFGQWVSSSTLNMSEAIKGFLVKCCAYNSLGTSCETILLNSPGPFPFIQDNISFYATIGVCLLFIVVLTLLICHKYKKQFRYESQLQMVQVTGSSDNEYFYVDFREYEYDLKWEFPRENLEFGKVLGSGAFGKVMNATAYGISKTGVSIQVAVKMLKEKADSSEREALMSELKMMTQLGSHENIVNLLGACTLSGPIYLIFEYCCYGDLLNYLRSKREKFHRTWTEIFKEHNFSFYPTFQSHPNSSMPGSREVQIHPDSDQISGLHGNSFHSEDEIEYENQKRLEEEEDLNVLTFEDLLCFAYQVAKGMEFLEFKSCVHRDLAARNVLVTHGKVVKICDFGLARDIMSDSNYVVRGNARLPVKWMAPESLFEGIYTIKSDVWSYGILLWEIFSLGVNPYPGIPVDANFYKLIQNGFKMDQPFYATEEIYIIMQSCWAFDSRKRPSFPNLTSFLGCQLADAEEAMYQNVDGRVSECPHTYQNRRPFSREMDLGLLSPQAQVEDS
Nature of the data set: Binding affinity to wild-type human partial length FLT3 (V592 to Y969 residues) expressed in Escherichia coli after 1 hr by qPCR analysis. (Quantitative PCR measures a nucleic acid by following its amplification.)

The target of data set [4] is Receptor-type tyrosine-protein kinase FLT3 (Homo sapiens, UniProt P36888, N841I). Put plainly: Binding affinity to human partial length FLT3 N841I mutant (V592 to Y969 residues) expressed in Escherichia coli after 1 hr by qPCR analysis.
Data set [5] deals with Receptor-type tyrosine-protein kinase FLT3 (Homo sapiens) (UniProt P36888). Nature of the data set: Inhibition of FLT3 autophosphorylation in human MOLM13 cells assessed as ratio of phosphorylated FLT3 to beta-actin level at 100 nM after 2 hrs by Western blot analysis relative to control. It counts as cell-based. (In general: A western blot detects proteins with antibodies after separation by electrophoresis.)

Data set [6] has as its system Receptor-type tyrosine-protein kinase FLT3 (Homo sapiens), P36888 [UNDEFINED MUTATION]. Nature of the data set: Inhibition of FLT3 ITD mutant in human MOLM13 cells assessed as ratio of phosphorylated STAT5 to beta-actin level at 100 nM after 2 hrs by Western blot analysis relative to control. It counts as cell-based.
Another data set is filed under the species Homo sapiens. Put plainly: Inhibition of MAPK in human MOLM13 cells assessed as ratio of phosphorylated ERK to beta-actin level at 100 nM after 2 hrs by Western blot analysis relative to control. It counts as cell-based.
Data set [7] has as its system MV4-11. Nature of the data set: Antitumour activity against human MV4-11 cells xenografted in NOD/SCID mouse assessed as tumour growth inhibition at 3 mg/kg, po qd for 14 days measured every two days during compound dosing by caliper method relative to control. It counts as functional. As to conditions: MV4-11, po, read-out: TGI. On the technique in general: In xenograft studies the graft and the host belong to different species.

The subject of data set [8] is MOLM-13. Put plainly: Antitumour activity against human MOLM13 cells xenografted in NOD/SCID mouse assessed as tumour growth inhibition at 1 mg/kg, po qd for 10 days measured every two days during compound dosing by caliper method relative to control. It is filed as functional. As to conditions: MOLM-13, po, read-out: TGI.
For data set [9], the system named is MOLM-13. Put plainly: Cell cycle arrest in human MOLM13 cells assessed as accumulation at G0/G1 phase at 10 nM after 24 hrs by propidium iodide staining-based flow cytometric analysis (reference value: 44.53%). It counts as functional.
Data set [10] deals with MV4-11. Nature of the data set: Cell cycle arrest in human MV4-11 cells assessed as accumulation at G0/G1 phase at 1 nM after 24 hrs by propidium iodide staining-based flow cytometric analysis (reference value: 48.76%). It counts as functional.
Data set [11] concerns MOLM-13. Nature of the data set: Cell cycle arrest in human MOLM13 cells assessed as accumulation at S phase at 10 nM after 24 hrs by propidium iodide staining-based flow cytometric analysis (reference value: 41.95%). It is filed as functional.
For data set [12], the system named is MV4-11. Nature of the data set: Cell cycle arrest in human MV4-11 cells assessed as accumulation at S phase at 1 nM after 24 hrs by propidium iodide staining-based flow cytometric analysis (reference value: 30.12%). It is filed as functional.
Data set [13] has as its system MV4-11. Put plainly: Cell cycle arrest in human MV4-11 cells assessed as accumulation at S phase at 10 nM after 24 hrs by propidium iodide staining-based flow cytometric analysis (reference value: 30.12%). It counts as functional.
Data set [14] relates to MV4-11. Nature of the data set: Induction of apoptosis in human MV4-11 cells assessed as necrotic cells at 1 nM after 48 hrs by Annexin V/propidium iodide staining based flow cytometry (reference value: 0.06%). It counts as functional.
Data set [15] deals with MV4-11. Put plainly: Cell cycle arrest in human MV4-11 cells assessed as accumulation at G2/M phase at 30 nM after 24 hrs by propidium iodide staining-based flow cytometric analysis (reference value: 21.12%). It counts as functional.
The test system of data set [16] is MOLM-13. Nature of the data set: Induction of apoptosis in human MOLM13 cells after 48 hrs by Annexin V/propidium iodide staining-based flow cytometry. It is filed as functional, cell-based.
The test system of data set [17] is MOLM-13. Put plainly: Induction of apoptosis in human MOLM13 cells assessed as late apoptotic cells at 10 uM after 48 hrs by Annexin V/propidium iodide staining based flow cytometry (reference value: 5.52%). It counts as functional.
Data set [18] has as its system MOLM-13. Nature of the data set: Induction of apoptosis in human MOLM13 cells assessed as necrotic cells at 10 uM after 48 hrs by Annexin V/propidium iodide staining based flow cytometry (reference value: 0.29%). It is filed as functional.
Data set [19] concerns MV4-11. Nature of the data set: Induction of apoptosis in human MV4-11 cells assessed as early apoptotic cells at 10 nM after 48 hrs by Annexin V/propidium iodide staining based flow cytometry (reference value: 2.76%). It is filed as functional.
Data set [20] concerns MV4-11. Nature of the data set: Induction of apoptosis in human MV4-11 cells assessed as early apoptotic cells at 100 nM after 48 hrs by Annexin V/propidium iodide staining based flow cytometry (reference value: 2.76%). It counts as functional.
Data set [21] concerns MV4-11. Nature of the data set: Induction of apoptosis in human MV4-11 cells assessed as viable cells at 10 uM after 48 hrs by Annexin V/propidium iodide staining based flow cytometry (reference value: 94.4%). It is filed as functional. The conditions noted are these: MV4-11, 48 h, read-out: Activity.
A further data set deals with BaF3. Nature of the data set: cells. As to conditions: Mus musculus, BaF3, 72 h.

For orientation: CL/F means the apparent clearance, not corrected for the fraction that reaches the circulation. What is called bioavailability is dose-corrected exposure relative to a reference, in per cent. Higher therefore signals good availability. A word on the Kd: it is a measure of binding affinity in units of concentration. What is called IC50 is the midpoint of a concentration-inhibition curve. The low end stands for greater potency, the high end for weaker potency.

Description for BaF3: Antiproliferative activity against mouse BAF3 cells harboring FLT3-ITD-D835V mutant measured after 72 hrs by MTT assay

Regarding `C=CCn1cc(-c2ccc(NC(=O)Nc3cc(C(C)(C)C)on3)cc2)c2c(N)ncnc21`, the CL/F in data set [1] was 20.3 mL/min/kg. Further, in [2], the bioavailability amounted to 59.5%. The values for the dissociation constant Kd in data set [3] and in data set [4] were 4.37 nM and 2.37 nM, respectively. Moreover, the fold change (FC) in data set [5] was 0; in data set [6], 0; in the data set filed under Homo sapiens, 0.12. Also, the inhibition in vivo at 3 mg/kg in the data set on MV4-11 [7] came to 98.2%. The inhibition in vivo at 1 mg/kg in the data set on MOLM-13 [8] worked out at 77.9%. Also, the Activity is 94.62% in the data set on MOLM-13 [9]; 50.94% in the data set with MV4-11 [10]; 3.01% in the data set on MOLM-13 [11]; 32.51% in the data set with MV4-11 [12]; 2.06% in the data set on MV4-11 [13]; 0.13% in the data set on MV4-11 [14]. For the same compound, the Activity in the data set on MV4-11 [15] is 1.79%; in the data set on MOLM-13 [16], “Dose-dependent effect”; in the data set on MOLM-13 [17], 98.5%; in the data set on MOLM-13 [18] it was 0.4%; with MV4-11 [19], 9.57%; in the data set on MV4-11 [20], 11.3%. In addition, the viability at 10 µM in the data set on MV4-11 [21] amounted to 18.1%. The same compound yielded a half-maximal inhibitory concentration (IC50) in the data set with BaF3 of 20.7 nM.
